How the values were obtained:
rhizavidin [1] = assay: binding of rhizavidin to ligands assessed for affinity chromatography; design: species or system Rhizobium etli; conditions: for binding to rhizavidin: ligand assessed for affinity chromatography
rhizavidin [2] = assay: affinity column purification of rhizavidin with immobilized ligand; design: species or system Rhizobium etli; conditions: data not shown
Procedure: The following steps can be followed to prepare a LA-matrix for use in the methods as disclosed herein: • i. Resuspend CARBOXYLINK™ Coupling Resin (Life technologies, 20266) and aliquot 1 ml of suspended resin into an empty column, e.g., a bio-rad Econo-Pac Chromatography Column, allow resin to settle. Wash the resin with approx.20 ml of water and add 10 ml of PBS (×1) to equilibrate resin. • ii. Prepare a 100 mg/ml solution of Sulfo-NHS by dissolving 50 mg of Sulfo-NHS (N-hydroxysulfosuccinimide) in 0.5 ml of 0.1M MES buffer. • iii. Prepare a Sulfo-NHS/LA mixture by adding 0.25 ml of ethanol and 0.25 ml of 50 mg/ml LA stock solution (12.5 mg of LA) to 0.5 ml of Sulfo-NHS (100 mg/ml). • iv. To cross link the LA to the resin, dissolve 25 mg of EDC in 0.75 ml of coupling buffer and immediately add to Sulfo-NHS/LA mixture. Incubate the EDC/Sulfo-NHS/LA mixture with rotation for 30 min RT. Adjust the pH of the EDC/Sulfo-NHS/LA mixture to pH 7.0 by adding 1M Na2HPO4 (pH11) (approx. 0.5 ml of 1M Na2HPO4) • v. Resuspend the equilibrated CARBOXYLINK™ Coupling Resin with EDC/Sulfo-NHS/LA mixture and transfer everything to a 5 ml tube, incubate with rotation overnight RT. • vi. Transfer resin into an empty column, allow LA resin/LA matrix to settle. Wash resin with the following reagents in the following order; (i) 20 ml of wash buffer, (ii) 20 ml of H2O, (iii) Wash resin comprising 5 ml of 20% ethanol. Store LA resin/LA matrix in 20% ethanol until use.
The following steps can be followed in the methods as disclosed herein to purify a biotin-binding protein, e.g., rhizavidin or a rhiavidin fusion protein using a LA-matrix from a bacterial suspension expressing the rhizavidin or a rhiavidin fusion protein: • v. Collect E. coli culture by centrifugation, discard supernatant, and resuspend pelleted cells with a lysis buffer (20 mM Tris, 1M NaCl, pH8.0) containing DNase, proteinase inhibitors and 10 mM MgCl2. […] Transfer resin into an empty column after incubation and wash the LA resin with wash buffer (50% ethanol, 20 mM Tris, 1M NaCl) until no protein is detected in flow through • ix. […]

streptavidin = streptavidin (Streptomyces avidinii, UniProt P22629); conditions: cited from earlier work
Sequence of streptavidin (P22629 25-183): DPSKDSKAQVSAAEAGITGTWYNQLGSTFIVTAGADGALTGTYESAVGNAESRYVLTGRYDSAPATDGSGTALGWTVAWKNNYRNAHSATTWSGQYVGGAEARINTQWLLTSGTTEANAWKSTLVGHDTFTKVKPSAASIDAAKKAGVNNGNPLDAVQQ

SMILES: O=C(O)c1ccccc1N=Nc1ccc(O)cc1 [HABA, hydrooxyazobenzene-benzoic acid]
- binding to rhizavidin (rhizavidin [1]): did not bind
- effectiveness of column comprising the ligand at purifying rhizavidin (rhizavidin [2]): not effective
- binding to streptavidin (streptavidin): bind with high affinity

SMILES: Cc1cc(N=Nc2ccccc2C(=O)O)cc(C)c1O [dimethyl-HABA]
- binding to rhizavidin (rhizavidin [1]): did not bind
- effectiveness of column comprising the ligand at purifying rhizavidin (rhizavidin [2]): not effective
- binding to streptavidin (streptavidin): bind with high affinity

SMILES: O=C(O)CCCCC1CCSS1 (stereo not drawn) [lipoic acid, 1,2-dithione-3-pentanoic acid]
- affinity of binding to rhizavidin (rhizavidin [1]): micromolar affinity
- affinity of rhizavidin for lipoic acid compared with polyhistadine tag for nickel (rhizavidin [1]): approximately the same as histadine
- effectiveness of column comprising the ligand at purifying rhizavidin (rhizavidin [2]): effective

— patent publication US20190119332A1, “METHODS TO PURIFY AVIDIN-LIKE PROTEINS AND FUSION PROTEINS THEREOF” (THE CHILDREN'S MEDICAL CENTER CORPORATION, priority 2016, published 2019)
